Key:
SMARCA4 = target: T1, SMARCA4 (Homo sapiens, UniProt P51532); test: SMARCA4 HiBiT degradation assay in HeLa cells; assay type: cell-based; settings: 18 hours; for Dmax: HeLa
T1 construct: SMARCA4-HiBiT knock-in Hela monoclonal cell (CS3023226) were purchased from Promega; host or cells: HeLa (CRISPR HiBiT knock-in monoclonal line, heterozygous)
How it was run: (§1)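 Degradation measured as HiBiT luminescence (Nano-Glo lytic reagent) after 18 h compound exposure at 37° C. Cells were HeLa clones carrying heterozygous HiBiT tags on SMARCA2 or SMARCA4, 2500 per well; compounds at 3-fold serial dilution from 10 μM.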

SMARCA2 = target: T2, SMARCA2 (Homo sapiens, UniProt P51531); test: SMARCA2 HiBiT degradation assay in HeLa cells; assay type: cell-based; settings: 18 hours; for DC50: read-out: SMARCA2 IC50; for Dmax: HeLa
T2 construct: SMARCA2-HiBiT knock-in Hela monoclonal cell (CS302366); host or cells: HeLa (CRISPR HiBiT knock-in monoclonal line, heterozygous)
How it was run: as §1

T2 sequence (P51531 whole entry): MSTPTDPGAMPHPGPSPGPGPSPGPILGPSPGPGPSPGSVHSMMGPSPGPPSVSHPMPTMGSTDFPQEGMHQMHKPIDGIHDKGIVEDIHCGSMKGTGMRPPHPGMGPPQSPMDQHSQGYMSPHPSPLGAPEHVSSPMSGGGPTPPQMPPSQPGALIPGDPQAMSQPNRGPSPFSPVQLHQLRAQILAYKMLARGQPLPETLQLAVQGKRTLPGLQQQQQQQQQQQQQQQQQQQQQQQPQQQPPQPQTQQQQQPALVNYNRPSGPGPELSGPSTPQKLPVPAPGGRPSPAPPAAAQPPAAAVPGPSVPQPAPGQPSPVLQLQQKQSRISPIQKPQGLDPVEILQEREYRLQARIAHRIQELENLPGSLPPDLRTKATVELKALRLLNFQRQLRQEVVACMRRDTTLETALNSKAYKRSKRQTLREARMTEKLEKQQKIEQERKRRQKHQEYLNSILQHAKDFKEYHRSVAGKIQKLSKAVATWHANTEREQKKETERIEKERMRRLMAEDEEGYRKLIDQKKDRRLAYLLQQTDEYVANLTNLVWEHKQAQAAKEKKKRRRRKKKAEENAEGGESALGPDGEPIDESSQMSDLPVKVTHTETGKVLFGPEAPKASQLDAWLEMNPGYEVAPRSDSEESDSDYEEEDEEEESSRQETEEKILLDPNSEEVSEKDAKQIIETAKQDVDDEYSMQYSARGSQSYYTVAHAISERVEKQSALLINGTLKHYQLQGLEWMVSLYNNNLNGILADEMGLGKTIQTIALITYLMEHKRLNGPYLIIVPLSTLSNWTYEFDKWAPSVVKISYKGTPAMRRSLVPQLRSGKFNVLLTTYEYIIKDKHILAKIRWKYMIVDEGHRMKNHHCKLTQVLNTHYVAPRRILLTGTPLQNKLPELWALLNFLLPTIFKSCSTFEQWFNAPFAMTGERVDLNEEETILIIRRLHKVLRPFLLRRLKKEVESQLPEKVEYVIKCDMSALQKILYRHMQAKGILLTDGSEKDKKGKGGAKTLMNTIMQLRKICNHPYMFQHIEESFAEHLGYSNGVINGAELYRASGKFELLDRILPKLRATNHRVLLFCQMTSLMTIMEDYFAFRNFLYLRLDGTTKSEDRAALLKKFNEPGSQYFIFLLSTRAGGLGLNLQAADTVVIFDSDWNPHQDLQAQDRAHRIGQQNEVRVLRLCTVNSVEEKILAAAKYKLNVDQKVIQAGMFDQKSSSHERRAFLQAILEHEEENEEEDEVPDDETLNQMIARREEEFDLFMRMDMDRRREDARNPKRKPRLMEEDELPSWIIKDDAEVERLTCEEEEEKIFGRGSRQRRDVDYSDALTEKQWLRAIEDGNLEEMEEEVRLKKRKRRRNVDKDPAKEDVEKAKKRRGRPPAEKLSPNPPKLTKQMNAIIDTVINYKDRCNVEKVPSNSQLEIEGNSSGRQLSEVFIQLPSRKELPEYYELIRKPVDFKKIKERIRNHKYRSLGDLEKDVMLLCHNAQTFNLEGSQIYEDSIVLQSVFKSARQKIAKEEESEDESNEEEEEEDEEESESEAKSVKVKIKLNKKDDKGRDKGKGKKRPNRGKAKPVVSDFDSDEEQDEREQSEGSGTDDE
T1 sequence (P51532 whole entry): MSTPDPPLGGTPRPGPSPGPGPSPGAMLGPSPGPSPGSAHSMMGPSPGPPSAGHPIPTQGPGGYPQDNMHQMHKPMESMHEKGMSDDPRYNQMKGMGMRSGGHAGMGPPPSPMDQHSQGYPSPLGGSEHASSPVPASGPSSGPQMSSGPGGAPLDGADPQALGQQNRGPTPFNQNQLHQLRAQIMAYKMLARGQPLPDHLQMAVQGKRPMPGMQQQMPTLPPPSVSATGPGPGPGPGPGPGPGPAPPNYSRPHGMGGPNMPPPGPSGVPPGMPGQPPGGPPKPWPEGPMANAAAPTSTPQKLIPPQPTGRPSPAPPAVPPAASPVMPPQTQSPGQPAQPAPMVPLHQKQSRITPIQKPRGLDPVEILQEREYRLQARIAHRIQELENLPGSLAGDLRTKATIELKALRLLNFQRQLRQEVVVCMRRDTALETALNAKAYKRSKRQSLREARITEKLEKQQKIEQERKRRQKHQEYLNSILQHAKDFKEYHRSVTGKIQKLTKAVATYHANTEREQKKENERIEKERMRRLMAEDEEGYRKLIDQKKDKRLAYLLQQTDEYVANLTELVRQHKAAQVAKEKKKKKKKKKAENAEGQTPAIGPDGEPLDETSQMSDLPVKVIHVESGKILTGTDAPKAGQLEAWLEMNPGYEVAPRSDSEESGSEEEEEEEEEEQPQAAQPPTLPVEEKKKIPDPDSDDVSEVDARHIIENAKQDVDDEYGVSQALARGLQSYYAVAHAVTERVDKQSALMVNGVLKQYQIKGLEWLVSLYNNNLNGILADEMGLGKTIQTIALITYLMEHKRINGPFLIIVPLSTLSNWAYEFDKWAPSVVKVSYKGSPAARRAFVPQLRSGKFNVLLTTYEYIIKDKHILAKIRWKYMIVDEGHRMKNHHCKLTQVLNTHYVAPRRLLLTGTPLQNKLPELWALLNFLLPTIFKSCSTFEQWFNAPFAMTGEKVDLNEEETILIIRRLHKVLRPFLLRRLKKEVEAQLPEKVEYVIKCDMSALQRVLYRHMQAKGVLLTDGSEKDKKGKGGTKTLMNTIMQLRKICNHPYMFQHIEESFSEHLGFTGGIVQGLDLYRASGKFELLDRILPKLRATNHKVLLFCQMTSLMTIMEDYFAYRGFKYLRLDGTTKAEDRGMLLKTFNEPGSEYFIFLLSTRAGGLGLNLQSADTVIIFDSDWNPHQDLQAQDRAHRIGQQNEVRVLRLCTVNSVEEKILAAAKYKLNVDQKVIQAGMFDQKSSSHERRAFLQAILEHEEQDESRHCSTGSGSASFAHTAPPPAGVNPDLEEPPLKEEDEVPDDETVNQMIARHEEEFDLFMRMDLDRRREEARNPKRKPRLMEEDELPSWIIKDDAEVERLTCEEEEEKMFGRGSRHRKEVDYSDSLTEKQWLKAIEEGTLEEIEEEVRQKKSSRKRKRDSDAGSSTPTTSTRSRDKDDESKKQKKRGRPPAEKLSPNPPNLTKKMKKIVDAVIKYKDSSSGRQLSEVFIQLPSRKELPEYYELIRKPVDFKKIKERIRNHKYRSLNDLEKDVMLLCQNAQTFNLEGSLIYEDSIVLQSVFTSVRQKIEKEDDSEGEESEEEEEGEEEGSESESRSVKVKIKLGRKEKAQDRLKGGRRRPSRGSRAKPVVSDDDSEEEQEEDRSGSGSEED

Row | SMILES | DC50 (SMARCA4) [nM] | Dmax (SMARCA4) [%] | DC50 (SMARCA2) [nM] | Dmax (SMARCA2) [%]
1 | C[C@@H]1CN(CC2CCN(c3ccc4c(c3)C(=O)N(C3CCC(=O)NC3=O)C4)CC2)C[C@H](C)N1C(=O)N1CCN2c3cc(-c4cc(F)cc(F)c4O)nnc3NCC2(C)C1 (stereo partly drawn) [Example 26, 3-(6-(4-(((3S,5R)-4-(2-(3,5-difluoro-2-hydroxyphenyl)-6a-methyl-6,6a,7,8,9,10-hexahydro-5H-pyrazino[1′,2′:4,5]pyrazino[2,3-c]pyridazine-8-carbonyl)-3,5-dimethylpiperazin-1-yl)methyl)piperidin-1-yl)-1-oxoisoindolin-2-yl)piperidine-2,6-dione] | < 100 | > 75 | < 100 | > 75
2 | C[C@@H]1CN(CC2CCN(c3ccc4c(c3)C(=O)N(C3CCC(=O)NC3=O)C4)CC2)C[C@H](C)N1C(=O)N1CCN2c3cc(-c4cccc(Cl)c4O)nnc3NCC2(C)C1 (stereo partly drawn) [Example 30, 3-(6-(4-(((3R,5S)-4-(2-(3-chloro-2-hydroxyphenyl)-6a-methyl-6,6a,7,8,9,10-hexahydro-5H-pyrazino[1′,2′:4,5]pyrazino[2,3-c]pyridazine-8-carbonyl)-3,5-dimethylpiperazin-1-yl)methyl)piperidin-1-yl)-1-oxoisoindolin-2-yl)piperidine-2,6-dione] | < 100 | 50 to 75 | < 100 | > 75
3 | C[C@@H]1CN(CC2CCN(c3ccc4c(c3)C(=O)N(C3CCC(=O)NC3=O)C4)CC2)C[C@@H](C)N1C(=O)N1CCN2c3cc(-c4cc(F)cc(F)c4O)nnc3NCC2(C)C1 (stereo partly drawn) [Example 33, 3-(6-(4-(((3R,5R)-4-(2-(3,5-difluoro-2-hydroxyphenyl)-6a-methyl-6,6a,7,8,9,10-hexahydro-5H-pyrazino[1′,2′:4,5]pyrazino[2,3-c]pyridazine-8-carbonyl)-3,5-dimethylpiperazin-1-yl)methyl)piperidin-1-yl)-1-oxoisoindolin-2-yl)piperidine-2,6-dione] | < 100 | > 75 | < 100 | > 75
4 | C[C@@H]1CN(CC2CCN(c3ccc4c(c3)C(=O)N(C3CCC(=O)NC3=O)C4=O)CC2)C[C@H](C)N1C(=O)N1CCN2c3cc(-c4cc(F)cc(F)c4O)nnc3NCC2(C)C1 (stereo partly drawn) [Example 36, 5-(4-(((3S,5R)-4-(2-(3,5-difluoro-2-hydroxyphenyl)-6a-methyl-6,6a,7,8,9,10-hexahydro-5H-pyrazino[1′,2′:4,5]pyrazino[2,3-c]pyridazine-8-carbonyl)-3,5-dimethylpiperazin-1-yl)methyl)piperidin-1-yl)-2-(2,6-dioxopiperidin-3-yl)isoindoline-1,3-dione] | < 100 | > 75 | < 100 | > 75
5 | C[C@@H]1CN(CC2CCN(c3ccc4c(c3)C(=O)N(C3CCC(=O)NC3=O)C4)CC2)C[C@@H](C)N1C(=O)N1CCN2c3cc(-c4cc(F)cc(F)c4O)nnc3NC[C@H]2C1 (stereo partly drawn) [Example 45, 3-(6-(4-(((3R,5R)-4-((S)-2-(3,5-difluoro-2-hydroxyphenyl)-6,6a,7,8,9,10-hexahydro-5H-pyrazino[1′,2′:4,5]pyrazino[2,3-c]pyridazine-8-carbonyl)-3,5-dimethylpiperazin-1-yl)methyl)piperidin-1-yl)-1-oxoisoindolin-2-yl)piperidine-2,6-dione] | < 100 | < 50 | < 100 | > 75
6 | C[C@@H]1CN(C[C@H]2CN(c3ccc4c(c3)CN(C3CCC(=O)NC3=O)C4=O)CCO2)C[C@@H](C)N1C(=O)N1CCN2c3cc(-c4cc(F)cc(F)c4O)nnc3NC[C@H]2C1 (stereo partly drawn) [Example 46, 3-(5-((S)-2-(((3R,5R)-4-((S)-2-(3,5-difluoro-2-hydroxyphenyl)-6,6a,7,8,9,10-hexahydro-5H-pyrazino[1′,2′:4,5]pyrazino[2,3-c]pyridazine-8-carbonyl)-3,5-dimethylpiperazin-1-yl)methyl)morpholino)-1-oxoisoindolin-2-yl)piperidine-2,6-dione] | < 100 | < 50 | < 100 | > 75
7 | C[C@H]1CN(CC2CCN(c3ccc4c(c3)C(=O)N(C3CCC(=O)NC3=O)C4)CC2)C[C@H](C)N1C(=O)N1CCN2c3cc(-c4cc(F)cc(F)c4O)nnc3NC[C@H]2C1 (stereo partly drawn) [Example 47, 3-(6-(4-(((3S,5S)-4-((S)-2-(3,5-difluoro-2-hydroxyphenyl)-6,6a,7,8,9,10-hexahydro-5H-pyrazino[1′,2′:4,5]pyrazino[2,3-c]pyridazine-8-carbonyl)-3,5-dimethylpiperazin-1-yl)methyl)piperidin-1-yl)-1-oxoisoindolin-2-yl)piperidine-2,6-dione] | < 100 | 50 to 75 | < 100 | > 75
8 | O=C1CCC(N2Cc3ccc(N4CCN(CC5CCN(C(=O)N6CCN7c8cc(-c9cc(F)cc(F)c9O)nnc8NC[C@H]7C6)CC5)CC4)cc3C2=O)C(=O)N1 (stereo partly drawn) [Example 48, 3-(6-(4-((1-((S)-2-(3,5-difluoro-2-hydroxyphenyl)-6,6a,7,8,9,10-hexahydro-5H-pyrazino[1′,2′:4,5]pyrazino[2,3-c]pyridazine-8-carbonyl)piperidin-4-yl)methyl)piperazin-1-yl)-1-oxoisoindolin-2-yl)piperidine-2,6-dione] | < 100 | < 50 | < 100 | > 75
9 | O=C1CCC(N2Cc3ccc(N4CCOC(CN5CC6C(C5)C6CN5CCN6c7cc(-c8cc(F)cc(F)c8O)nnc7NCC6C5)C4)cc3C2=O)C(=O)N1 [Example 49, 3-(6-(2-(((1R,5S,6s)-6-(((S)-2-(3,5-difluoro-2-hydroxyphenyl)-5,6,6a,7,9,10-hexahydro-8H-pyrazino[1′,2′:4,5]pyrazino[2,3-c]pyridazin-8-yl)methyl)-3-azabicyclo[3.1.0]hexan-3-yl)methyl)morpholino)-1-oxoisoindolin-2-yl)piperidine-2,6-dione] | < 100 | > 75 | < 100 | > 75
10 | C[C@H]1CN2c3cc(-c4cc(F)cc(F)c4O)nnc3NC[C@H]2CN1C[C@H]1[C@@H]2CN(CC3CN(c4ccc5c(c4)C(=O)N(C4CCC(=O)NC4=O)C5)CCO3)C[C@@H]21 (stereo partly drawn) [Example 50, 3-(6-(2-(((1R,5S,6r)-6-(((6aS,9S)-2-(3,5-difluoro-2-hydroxyphenyl)-9-methyl-5,6,6a,7,9,10-hexahydro-8H-pyrazino[1′,2′:4,5]pyrazino[2,3-c]pyridazin-8-yl)methyl)-3-azabicyclo[3.1.0]hexan-3-yl)methyl)morpholino)-1-oxoisoindolin-2-yl)piperidine-2,6-dione] | < 100 | 50 to 75 | < 100 | > 75
11 | O=C1CCC(N2Cc3cc(N4CCO[C@@H](CN5CC[C@H](CN6CCN7c8cc(-c9cc(F)cc(F)c9O)nnc8NC[C@H]7C6)[C@@H](F)C5)C4)ccc3C2=O)C(=O)N1 (stereo partly drawn) [Example 51, 3-(5-((S)-2-(((3R,4R)-4-(((S)-2-(3,5-difluoro-2-hydroxyphenyl)-5,6,6a,7,9,10-hexahydro-8H-pyrazino[1′,2′:4,5]pyrazino[2,3-c]pyridazin-8-yl)methyl)-3-fluoropiperidin-1-yl)methyl)morpholino)-1-oxoisoindolin-2-yl)piperidine-2,6-dione] | > 1000 | < 50 | < 100 | < 50
